ChEMBL document CHEMBL3351468, “Tritium-labelled isovaleryl-RYYRIK-NH2 as potential antagonist probe for ORL1 nociceptin receptor” (Bioorg Med Chem, 2014)

What was measured:
Nociceptin receptor [1] = molecular target: T1, Nociceptin receptor (Homo sapiens, UniProt P41146); test: Displacement of [3H]]nociceptin from human ORL1 receptor high affinity binding site expressed in African green monkey COS7 cells after 90 mins by topcount analysis
Nociceptin receptor [2] = molecular target: T1, Nociceptin receptor; test: Displacement of [3H]]nociceptin from human ORL1 receptor low affinity binding site expressed in African green monkey COS7 cells after 90 mins by topcount analysis
Nociceptin receptor [3] = molecular target: T1, Nociceptin receptor; test: Partial agonist activity at human ORL1 receptor expressed in African green monkey COS7 cells after 90 mins by topcount analysis; type: cell-based; settings: COS-7
Nociceptin receptor [4] = molecular target: T1, Nociceptin receptor; test: Displacement of [3H]isoVa-RYYRIK-NH2 from human ORL1 receptor expressed in African green monkey COS7 cells after 90 mins by topcount analysis; type: cell-based, COS-7
Nociceptin receptor [5] = molecular target: T1, Nociceptin receptor; test: Binding affinity to human ORL1 receptor expressed in African green monkey COS7 cells assessed per mg protein after 90 mins by Scatchard plot analysis; type: cell-based, COS-7
Nociceptin receptor [6] = molecular target: T1, Nociceptin receptor; test: Displacement of [3H]]nociceptin from human ORL1 receptor expressed in African green monkey COS7 cells after 90 mins by topcount analysis; type: cell-based, COS-7

T1 sequence (P41146 whole entry): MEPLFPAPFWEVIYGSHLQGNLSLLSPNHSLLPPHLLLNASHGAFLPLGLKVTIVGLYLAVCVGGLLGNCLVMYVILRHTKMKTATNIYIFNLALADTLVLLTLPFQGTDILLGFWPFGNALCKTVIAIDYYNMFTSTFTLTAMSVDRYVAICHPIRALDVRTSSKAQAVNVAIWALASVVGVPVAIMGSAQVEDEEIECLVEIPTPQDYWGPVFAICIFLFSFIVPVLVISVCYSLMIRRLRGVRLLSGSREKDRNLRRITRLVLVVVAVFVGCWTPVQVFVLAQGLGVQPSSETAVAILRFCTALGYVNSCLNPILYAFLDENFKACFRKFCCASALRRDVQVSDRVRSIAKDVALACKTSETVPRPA

Kd (Nociceptin receptor [5]) [nM] | SMILES | IC50 (Nociceptin receptor [1]) [nM] | IC50 (Nociceptin receptor [2]) [nM] | Activity (Nociceptin receptor [3]) [%] | IC50 (Nociceptin receptor [4]) [nM] | IC50 (Nociceptin receptor [6]) [nM]
 | CC[C@H](C)[C@H](NC(=O)[C@H](CCCNC(=N)N)NC(=O)[C@H](Cc1ccc(O)cc1)NC(=O)[C@H](Cc1ccc(O)cc1)NC(=O)[C@H](CCCNC(=N)N)NC(=O)CC(C)C)C(=O)N[C@@H](CCCCN)C(N)=O | 0.033 | 8.51 | 0 | 2.15 | 
 | CC[C@H](C)[C@H](NC(=O)[C@H](CCCNC(=N)N)NC(=O)[C@H](Cc1ccc(O)cc1)NC(=O)[C@H](Cc1ccc(O)cc1)NC(=O)[C@H](CCCNC(=N)N)NC(=O)C(C)C)C(=O)N[C@@H](CCCCN)C(N)=O | 0.059 | 1.67 | 14 |  | 
 | CC[C@H](C)[C@H](NC(=O)[C@H](CCCN=C(N)N)NC(=O)[C@H](Cc1ccc(O)cc1)NC(=O)[C@H](Cc1ccc(O)cc1)NC(=O)[C@H](CCCN=C(N)N)NC(C)=O)C(=O)N[C@@H](CCCCN)C(N)=O |  |  | 60 |  | 
1.21 | [3H]C(C(=O)N[C@@H](CCCNC(=N)N)C(=O)N[C@@H](Cc1ccc(O)cc1)C(=O)N[C@@H](Cc1ccc(O)cc1)C(=O)N[C@@H](CCCNC(=N)N)C(=O)N[C@H](C(=O)N[C@@H](CCCCN)C(N)=O)[C@@H](C)CC)C([3H])(C)C (stereo partly specified) |  |  |  |  | 
 | CCC(=O)N[C@@H](CCCNC(=N)N)C(=O)N[C@@H](Cc1ccc(O)cc1)C(=O)N[C@@H](Cc1ccc(O)cc1)C(=O)N[C@@H](CCCNC(=N)N)C(=O)N[C@H](C(=O)N[C@@H](CCCCN)C(N)=O)[C@@H](C)CC |  |  | 46 |  | 1.39
